Test results published in paper PMC12348835, “Design, Docking Analysis, and Structure–Activity Relationship of Ferrocene-Modified Tyrosine Kinase Inhibitors: Insights into BCR-ABL Interactions” (Molecules, 2025).

Legend:
CCL-1 = assay: MTT cell viability assay, normal fibroblasts CCL-1; type: cell-based, murine; settings: 72 h, non-malignant fibroblasts, ± standard deviation
Method: (§1) Cell viability was determined using the MTT colorimetric assay. […] Statistical significance was determined at p ≤ 0.05.

AR-230 = assay: MTT cell viability assay, AR-230; type: cell-based, human; settings: 72 h, ± standard deviation
Method: as §1

K-562 = assay: MTT cell viability assay, K-562; type: cell-based, human; settings: 72 h, ± standard deviation
Method: as §1

LAMA-84 = assay: MTT cell viability assay, LAMA-84; type: cell-based, human; settings: 72 h, ± standard deviation
Method: as §1

BV-173 = assay: MTT cell viability assay, BV-173; type: cell-based, human; settings: 72 h, ± standard deviation
Method: as §1

MDA-MB-231 = tested on: MDA-MB-231; parameters: method as in doi:10.2533/chimia.2007.716; settings: hormone-independent breast cancer cells; cited from earlier work
[1] = MTT cell viability assay, normal fibroblasts CCL-1; type: cell-based, murine; settings: mouse, CCL-1 normal fibroblast cells, non-malignant fibroblasts, ± standard deviation
Method: as §1

IC50 (K-562) [µM]	SMILES	IC50 (CCL-1) [µM]	IC50 (AR-230) [µM]	IC50 (LAMA-84) [µM]	IC50 (BV-173) [µM]	IC50 (MDA-MB-231) [µM]	IC50 at 72 h [1] [µM]
29.9 ± 3.1	Cc1ccc(NC(=O)c2ccc(CN3CCN(C)CC3)cc2)cc1Nc1nccc(-[c-]2cccc2)n1.[Fe+2].c1cc[cH-]c1 [Compound 6, N-(4-Methyl-3-((4-ferrocenylpyrimidin-2-yl)amino)phenyl)-4-((4-methylpiperazin-1-yl)methyl)benzamide]	55.7 ± 9.5	5.9 ± 0.2	25.4 ± 2.9	33.6 ± 2.1		
25.9 ± 2.9	Cc1cn(-c2cc(NC(=O)c3ccc(C)c(Nc4nccc(-[c-]5cccc5)n4)c3)cc(C(F)(F)F)c2)cn1.[Fe+2].c1cc[cH-]c1 [Compound 9, 4-Methyl-N-(3-(4-methyl-1H-imidazol-1-yl)-5-(trifluoromethyl)phenyl)-3-((4-ferrocenylpyrimidin-2-yl)amino)benzamide]	> 200	144 ± 10.6	25.4 ± 2.4	33.6 ± 2.3		
> 200	Cc1ccc(NC(=O)[c-]2cccc2)cc1Nc1nccc(-c2cccnc2)n1.[Fe+2].c1cc[cH-]c1 [Compound 14, N-(4-Methyl-3-((4-(pyridin-3-yl)pyrimidin-2-yl)amino)phenyl)ferrocenecarboxamide]	> 200	5.1 ± 1.3	27.3 ± 1.8	17.9 ± 3.1		
> 200	Cc1ccc(C(=O)N[c-]2cccc2)cc1Nc1nccc(-c2cccnc2)n1.[Fe+2].c1cc[cH-]c1 [Compound 18, N-Ferrocenyl-4-methyl-3-((4-(pyridin-3-yl)pyrimidin-2-yl)amino)benzamide]	60.2 ± 8.3	5.1 ± 0.9	26.8 ± 3.2	15.1 ± 2.9		
	CCC(=C(c1ccc(O)cc1)c1ccc(OCCCN(C)C)cc1)[c-]1cccc1.[Fe+2].c1cc[cH-]c1 [Hydroxy-ferrocifen]					0.5	
	CC/C(=C(\c1ccc(O)cc1)c1ccc(OCCN(C)C)cc1)c1ccccc1 [Hydroxy-tamoxifen]					30	
	Cc1ccc(NC(=O)c2ccc(CN3CCN(C)CC3)cc2)cc1Nc1nccc(-c2cccnc2)n1 [imatinib, reference compound]						> 200
